Common to all, as to assay type: functional
Test [1] in a line: Antioxidant activity assessed as ABTS radical scavenging activity.
Test [2] concerns Radical scavenging activity. The experiment in a line: Antioxidant activity assessed as DPPH radical scavenging activity. On the technique in general: DPPH is a stable violet radical that fades when it is reduced.
Test [3] is described as follows: Antioxidant activity assessed as superoxide radical anion scavenging activity.

Some results are limits rather than exact numbers.

By IC50 is commonly meant the point on the concentration scale where inhibition reaches its midpoint.

As to `COC(=O)/C(=C\c1ccc(O)c(O)c1)c1c(O)cc(/C=C/c2ccc(O)c(O)c2)oc1=O` [INTERFUNGIN C], the 50% inhibitory concentration (IC50) came out at 11.1 µM in test [1], 3.7 µM in test [2] and 3.1 µM in test [3].

Turning to `CC(=O)/C(=C\c1ccc(O)c(O)c1)c1c(O)cc(/C=C/c2ccc(O)c(O)c2)oc1=O` [INTERFUNGIN B], the IC50 in test [1] was 11.1 µM; in test [2], 2.5 µM; in test [3], 1.8 µM.

Turning to `O=C(O)/C=C/c1ccc(O)c(O)c1` [CAFFEIC ACID], the values for the concentration for half-maximal inhibition (IC50) in test [1], in test [2] and in test [3] were 25.9 µM, 3.7 µM and 2.2 µM, respectively.

For the molecule VITAMIN E, the concentration for half-maximal inhibition (IC50) was 11.6 µM in test [1], more than 100 µM in test [2] and 3.4 µM in test [3].

For the molecule `CC(=O)/C=C(O)/C(=C\c1ccc(O)c(O)c1)c1c(O)cc(/C=C/c2ccc(O)c(O)c2)oc1=O` [INTERFUNGIN A], the IC50 in test [1] was 14.1 µM; in test [2], 6.3 µM; in test [3] it was 2.7 µM.
